Reference: US20110092544A1, “FUNGICIDAL PYRIDINES” (E.I. DU PONT DE nemours and company, priority 2008, published 2011)

Assays:
Assay type in all cases: in vivo
[1] = test system: Erysiphe graminis f. sp. tritici; assay: Test A: wheat powdery mildew, preventive spray on wheat seedlings, visual disease rating
From the text: (§1) General protocol for preparing test suspensions for Tests A-H: The test compounds were first dissolved in acetone in an amount equal to 3% of the final volume and then suspended at the desired concentration (in ppm) in acetone and purified water (50/50 mix) containing 250 ppm of the surfactant Trem® 014 (polyhydric alcohol esters). The resulting test suspensions were then used in tests A-H. Spraying a 200 ppm test suspension to the point of run-off on the test plants was the equivalent of a rate of 500 g/ha.
The test suspension was sprayed to the point of run-off on wheat seedlings. The following day the seedlings were inoculated with a spore dust of Erysiphe graminis f. sp. tritici (the causal agent of wheat powdery mildew) and incubated in a growth chamber at 20° C. for 8 days, after which time disease ratings were visually made.
(§2) Results for Tests A-H are given in Table A. In the table, a rating of 100 indicates 100% disease control and a rating of 0 indicates no disease control (relative to the controls). A dash (-) indicates no test results. All results are for compounds tested at 200 ppm except where the compound number is followed by “*” which indicates the compound was tested at 40 ppm.

[2] = test system: Puccinia recondite f. sp. tritici; assay: Test B: wheat leaf rust, preventive spray on wheat seedlings, visual disease rating
From the text: as §1
(§3) The test suspension was sprayed to the point of run-off on wheat seedlings. The following day the seedlings were inoculated with a spore suspension of Puccinia recondite f. sp. tritici (the causal agent of wheat leaf rust) and incubated in a saturated atmosphere at 20° C. for 24 h, and then moved to a growth chamber at 20° C. for 7 days, after which time disease ratings were visually made.
as §2

[3] = test system: Septoria tritici; assay: Test C: wheat leaf blotch, preventive spray on wheat seedlings, visual disease rating
From the text: as §1
as §3, with “Septoria” for “Puccinia recondite f. sp.”, “blotch)” for “rust)”, “48” for “24”, “and” for “and then”, “19 additional” for “7”
as §2

[4] = test system: Septoria nodorum; assay: Test D: wheat glume blotch, preventive spray on wheat seedlings, visual disease rating
From the text: as §1
as §3, with “Septoria nodorum” for “Puccinia recondite f. sp. tritici”, “glume blotch)” for “leaf rust)”, “48” for “24”
as §2

[5] = test system: Alternaria solani; assay: Test E: tomato early blight, preventive spray on tomato seedlings, visual disease rating
From the text: as §1
(§4) The test suspension was sprayed to the point of run-off on tomato seedlings. The following day the seedlings were inoculated with a spore suspension of Alternaria solani (the causal agent of tomato early blight) and incubated in a saturated atmosphere at 27° C. for 48 h, and then moved to a growth chamber at 20° C. for 5 days, after which time disease ratings were visually made.
as §2

[6] = test system: Botrytis cinerea; assay: Test F: tomato botrytis, preventive spray on tomato seedlings, visual disease rating
From the text: as §1
as §4, with “Botrytis cinerea” for “Alternaria solani”, “botrytis)” for “early blight)”, “in” for “in a”, “20°” for “27°”, “24°” for “20°”, “3 additional” for “5”
as §2

[7] = 200 ppm, 100 = 100% disease control, 0 = no control
[8] = 40 ppm (compound number followed by *)

## COc1cc(OC)cc(-c2c(-c3ccc(F)cc3)cnc(C)c2-c2ccc(F)cc2F)c1 [Compound 95]
[1]; [7]
  Test A rating (% disease control): 93%
[2]; [7]
  Test B rating (% disease control): 99%
[3]; [7]
  Test C rating (% disease control): 96%
[4]; [7]
  Test D rating (% disease control): 0%
[5]; [7]
  Test E rating (% disease control): 73%
[6]; [7]
  Test F rating (% disease control): 87%

## COc1ccc(-c2c(C)ncc(C(C)(O)CO)c2-c2cc(OC)cc(OC)c2)cc1 (single isomer, unassigned) [Compound 85]
[1]; [7]
  Test A rating (% disease control): 43%
[2]; [7]
  Test B rating (% disease control): 61%
[3]; [7]
  Test C rating (% disease control): 43%
[4]; [7]
  Test D rating (% disease control): 0%
[5]; [7]
  Test E rating (% disease control): 0%
[6]; [7]
  Test F rating (% disease control): 96%

## CCC(O)(CC)c1cnc(C)c(-c2c(F)cc(F)cc2F)c1-c1cc(OC)cc(OC)c1 [Compound 98]
[1]; [7]
  Test A rating (% disease control): 86%
[2]; [7]
  Test B rating (% disease control): 92%
[3]; [7]
  Test C rating (% disease control): 92%
[4]; [7]
  Test D rating (% disease control): 0%
[5]; [7]
  Test E rating (% disease control): 9%
[6]; [7]
  Test F rating (% disease control): 93%

## COc1cc(OC)cc(-c2c(C3CCCC3)cnc(C)c2-c2c(F)cccc2F)c1 [Compound 67]
[1]; [8]
  Test A rating (% disease control): 100%
[2]; [8]
  Test B rating (% disease control): 100%
[3]; [8]
  Test C rating (% disease control): 95%
[4]; [8]
  Test D rating (% disease control): 0%
[5]; [8]
  Test E rating (% disease control): 99%
[6]; [8]
  Test F rating (% disease control): 99%

## COc1cc(OC)cc(-c2c(-c3cccnc3)cnc(C)c2-c2c(F)cc(F)cc2F)c1 [Compound 128]
[1]; [8]
  Test A rating (% disease control): 81%
[2]; [8]
  Test B rating (% disease control): 99%
[3]; [8]
  Test C rating (% disease control): 100%
[4]; [8]
  Test D rating (% disease control): 90%
[5]; [8]
  Test E rating (% disease control): 94%
[6]; [8]
  Test F rating (% disease control): 99%

## COc1cc(OC)cc(-c2c(-c3ccccc3)cnc(C)c2-c2c(F)cccc2F)c1 [Compound 87]
[1]; [8]
  Test A rating (% disease control): 98%
[2]; [8]
  Test B rating (% disease control): 96%
[3]; [8]
  Test C rating (% disease control): 95%
[4]; [8]
  Test D rating (% disease control): 0%
[5]; [8]
  Test E rating (% disease control): 0%
[6]; [8]
  Test F rating (% disease control): 72%

## COc1cc(OC)cc(-c2c(Cn3cc(C#N)cn3)cnc(C)c2-c2c(F)cc(F)cc2F)c1 [Compound 123]
[1]; [8]
  Test A rating (% disease control): 0%
[2]; [8]
  Test B rating (% disease control): 0%
[3]; [8]
  Test C rating (% disease control): 53%
[4]; [8]
  Test D rating (% disease control): 0%
[5]; [8]
  Test E rating (% disease control): 0%
[6]; [8]
  Test F rating (% disease control): 69%

## COc1cc(OC)cc(-c2c(COc3ccccc3)cnc(C)c2-c2c(F)cc(F)cc2F)c1 [Compound 109]
[1]; [7]
  Test A rating (% disease control): 98%
[2]; [7]
  Test B rating (% disease control): 97%
[3]; [7]
  Test C rating (% disease control): 97%
[4]; [7]
  Test D rating (% disease control): 0%
[5]; [7]
  Test E rating (% disease control): 0%
[6]; [7]
  Test F rating (% disease control): 92%

## COc1cc(OC)cc(-c2c(CO)cnc(C)c2-c2c(F)cc(F)cc2F)c1 [Compound 96, 4-(3,5-dimethoxyphenyl)-6-methyl-5-(2,4,6-trifluorophenyl)-3-pyridinemethanol]
[1]; Blumeria graminis, 192 h, 200 ppm, 100 = 100% disease control, 0 = no control
  pest or weed control at 200 ppm: 98%
[2]; 192 h, 200 ppm, 100 = 100% disease control, 0 = no control
  pest or weed control at 200 ppm: 96%
[3]; Zymoseptoria tritici, 504 h, 200 ppm, 100 = 100% disease control, 0 = no control
  pest or weed control at 200 ppm: 94%
[4]; Parastagonospora nodorum, 216 h, 200 ppm, 100 = 100% disease control, 0 = no control
  pest or weed control at 200 ppm: 0%
[5]; Alternaria solani, 168 h, 200 ppm, 100 = 100% disease control, 0 = no control
  pest or weed control at 200 ppm: 99%
[6]; Botrytis cinerea, 120 h, 200 ppm, 100 = 100% disease control, 0 = no control
  pest or weed control at 200 ppm: 98%

## COc1cc(OC)cc(-c2c(C3CCOCC3)cnc(C)c2-c2c(F)cc(F)cc2F)c1 [Compound 79]
[1]; [8]
  Test A rating (% disease control): 97%
[2]; [8]
  Test B rating (% disease control): 100%
[3]; [8]
  Test C rating (% disease control): 93%
[4]; [8]
  Test D rating (% disease control): 95%
[5]; [8]
  Test E rating (% disease control): 100%
[6]; [8]
  Test F rating (% disease control): 91%

## COc1ccc(-c2c(C)ncc(C(C)=O)c2-c2cc(OC)cc(OC)c2)cc1 [Compound 61]
[1]; [7]
  Test A rating (% disease control): 86%
[2]; [7]
  Test B rating (% disease control): 99%
[3]; [7]
  Test C rating (% disease control): 84%
[4]; [7]
  Test D rating (% disease control): 0%
[5]; [7]
  Test E rating (% disease control): 83%
[6]; [7]
  Test F rating (% disease control): 99%
